Patent US9890194B2, “Epitope and its use” (W[…] BADAŃEIT+ SP. Z O.O., priority 2012, dated 2018)

Assays:
[1] = test system: antibodies present in umbilical blood sera 1H-9H (IgG); assay: ELISA of peptides synthesized on HPM-pins with a mixture of 9 umbilical blood sera (1H-9H); format: binding, human; details: mixture of umbilical sera 1H-9H; 29 overlapping twelve amino-acid peptides of Table 1 on HPM-pins
Description: Peptides representing the bioinformatically predicted regions were synthesized using an NCP kit with 96 hydroxypropylmethacrylate (HPM) pins (MIMOTOPES, Clayton, Victoria, Australia) according to the manufacturer's specifications (Carter, J.M. (1994) An epitope mapping of a protein using the Geysen (PEPSCAN) procedure. Methods Mol Biol 36: 207-223). As the sixth, control, peptide we synthesised a fragment corresponding to the N-terminal region of ompC (AEVYNKDGNKLD-pin (SEQ ID NO: 12)).
After the completed synthesis, we performed initial reactivity tests for the individual peptides, using a standard ELISA test. The ELISA was performed in a mixture of 9 different umbilical blood sera (1H-9H) according to the following scheme: • a. Pin equilibration in TBS-T. • b. Blocking of free sites on the pins using 1% BSA in TBS-T • c. Incubation with umbilical sera at a dilution of 1:500 in a solution of 1% BSA in TBS-T buffer • d. Rinsing with TBS-T buffer • e. Incubation with secondary antibodies, conjugated Anti-Human IgG (Fc)-AP (Promega) • f. Rinsing with TBS-T • g. Reaction of AP with the substrate pNPP (p-Nitrophenyl Phosphate, Sigma) and absorbance measurement at 405 nm • h. Dissociation of proteins/antibodies from peptides synthesized on HPM-pins. […]

[2] = test system: antibodies present in human umbilical blood sera; assay: Immunological activity of truncated and substituted peptides derived from RYDERY with umbilical serum; format: binding; details: FIG. 4
Description: Unexpectedly it was shown that the immunological activity of the RYDERY peptide (SEQ ID NO: 2) is not affected by the removal of amino-acids in positions P+1 and P+2, nor in P−1, […]. The removal of amino-acids in positions P1 or P6, and in the subsequent positions (P2, P3 or P5, P4) caused a complete loss of activity. Likewise, a loss of immunological activity was caused by an exchange of residues at positions P1, P2 and P5. The latter amino-acids must remain unchanged in the final form of the peptide vaccine. Positions P3, P4 and P6 are less restrictive. In this case native amino-acids may be substituted by a series of other residues without any significant loss of immunological activity (FIG. 4). This property of the epitope facilitates the synthesis of a peptide less susceptible to enzymatic hydrolysis, and a higher antigenicity.
Furthermore, it was unexpectedly shown that an alteration of amino-acid D or E for Q yields an increased reactivity with umbilical serum (FIG. 5).

## RYDERY
[1]
  binding of antibodies in umbilical sera by loop V peptides: shortest active portion of the epitope

## YDERY
[2]
  immunological activity of peptides derived from RYDERY (removal or exchange of residues): no activity
